This test addresses T1, bovine serum albumin (BSA) (Bos taurus, UniProt P02769).
T1 construct: gene ALB; mature secreted protein
The test is described as follows: tryptophan fluorescence quenching, excitation […] nm. In kind it is binding. To be noted: double-log, natural logarithm of K, PBS, 300 K.

T1 sequence (P02769 25-607): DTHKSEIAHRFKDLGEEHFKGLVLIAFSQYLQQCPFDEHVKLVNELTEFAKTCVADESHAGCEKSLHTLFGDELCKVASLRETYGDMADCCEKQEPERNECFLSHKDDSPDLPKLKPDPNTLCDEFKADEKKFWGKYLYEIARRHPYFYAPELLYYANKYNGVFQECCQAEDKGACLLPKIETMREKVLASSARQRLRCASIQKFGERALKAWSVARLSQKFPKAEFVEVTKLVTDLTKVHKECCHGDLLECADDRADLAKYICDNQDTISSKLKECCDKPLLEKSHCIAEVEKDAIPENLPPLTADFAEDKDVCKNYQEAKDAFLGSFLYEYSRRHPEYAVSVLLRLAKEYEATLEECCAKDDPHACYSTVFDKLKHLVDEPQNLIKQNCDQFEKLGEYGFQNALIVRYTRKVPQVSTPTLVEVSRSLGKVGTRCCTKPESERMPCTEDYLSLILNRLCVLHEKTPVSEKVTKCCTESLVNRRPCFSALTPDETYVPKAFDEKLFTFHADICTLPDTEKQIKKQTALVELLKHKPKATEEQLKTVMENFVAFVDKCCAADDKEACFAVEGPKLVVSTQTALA

`COC(=O)c1cc2cc([N+](=O)[O-])ccc2oc1=O` [6-NO2]: the lnK was 9.03 ln (M^-1 not printed).

Regarding `COC(=O)c1cc2cc(Br)ccc2oc1=O` [6-Br], the lnK is 9.78 ln (M^-1 not printed).

For `COC(=O)c1cc2cc(OC)ccc2oc1=O` [6-OMe], under “covalent (suspected by the authors from new 480 nm peak), unreliable”, the lnK is listed as 12.62 ln (M^-1 not printed).

The values are drawn from publication PMC10380446, “The Electronic Effects of 3-Methoxycarbonylcoumarin Substituents on Spectral, Antioxidant, and Protein Binding Properties” (International Journal of Molecular Sciences, 2023).
